The source of these data is patent USRE48461E1, “Modulation of androgen receptor expression” (Ionis Pharmaceuticals, Inc., priority 2012, dated 2021).

Oligonucleotides are written 5' to 3', each unit as a sugar letter and its base; * is a phosphorothioate linkage, no mark a phosphodiester; rarer units and linkages stand in square brackets, end groups in braces. Plain capitals give the bases only. e = 2'-O-(2-methoxyethyl) (MOE); k = constrained ethyl (cEt); [5mC] = 5-methylcytosine; d = 2'-deoxy (DNA)

Series [1] deals with AR mRNA. Kind of series: Dose-dependent antisense inhibition of human AR in HuVEC cells (electroporation, qRT-PCR RTS3559, IC50). The series is classed as cell-based. Conditions: HuVEC. The method, boiled down: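 HuVEC cells dosed with antisense oligonucleotides by electroporation and treated approximately 16 hours. AR mRNA quantified by real-time qPCR with primer probe set RTS3559 and normalised to total RNA by RIBOGREEN; IC50 from dose-response.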
(In general: In qPCR the cycle at which signal appears reflects the starting amount.)

The test system of series [2] is AR mRNA. Kind of series: Antisense inhibition of human AR in HuVEC cells, single concentration (electroporation, qRT-PCR RTS3559). It is filed as cell-based. The procedure, abridged:
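HuVEC cells electroporated with antisense oligonucleotides at a single concentration. AR mRNA quantified by qRT-PCR using human primer-probe set RTS3559 and normalised to total RNA content by RIBOGREEN.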

Where [3] appears, read: Table 35, electroporation, approximately 16 hours.
The mark [4] stands for this setting: Table 24, 1,000 nM oligonucleotide, electroporation, approximately 24 hours, relative to untreated control.
The mark [5] stands for this setting: Table 36, electroporation, approximately 16 hours.
Setting [6] is: Table 34, electroporation, approximately 16 hours.
[7] abbreviates: Table 22, 500 nM oligonucleotide, electroporation, approximately 24 hours, relative to untreated control.
The mark [8] stands for this setting: Table 29, electroporation, approximately 16 hours.
Where [9] appears, read: Table 30, electroporation, approximately 16 hours.
Setting [10] is: Table 31, electroporation, approximately 16 hours.
[11] abbreviates: Table 32, electroporation, approximately 16 hours.

In general, IC50 refers to the concentration that inhibits the measured activity by half. Low readings indicate inhibition by little substance, high ones a need for much substance. By % inhibition is commonly meant the change of the read-out against control, counted positive when it falls. A high value points to a strong effect.

Consider “584162 (kT*kG*kG*dA*dT*dT*dG*dT*dA*dA*dA*dT*dT*kA*k[5mC]*kG; antisense) [compound 584162]”, for which, in the series on AR mRNA [1] (setting [3]), the “percent inhibition of AR, 46.9 nM” value came out at 24%; the “percent inhibition of AR, 187.5 nM” value is listed as 45%; the “percent inhibition of AR, 750.0 nM” value is 80%; the “percent inhibition of AR, 3000.0 nM” value is on record as 92%. Also, inhibition in the series on AR mRNA [1] (setting [3]) was half-maximal at 180 nM (IC50). Besides, the “% inhibition” value in the series on AR mRNA [2] (setting [4]) is on record as 82%.

As to “584469 (kT*kT*kT*dG*dG*dT*dA*dA*d[5mC]*dA*dT*dT*dA*kG*kG*k[5mC]; antisense) [compound 584469]”, in the series on AR mRNA [1] (setting [5]), the “percent inhibition of AR, 46.9 nM” value came out at 13%; the “percent inhibition of AR, 187.5 nM” value was 46%; the “percent inhibition of AR, 750.0 nM” value is recorded as 73%; the “percent inhibition of AR, 3000.0 nM” value stood at 89%. Also, it took 220 nM to reach half-maximal inhibition with AR mRNA [1] (setting [5]) (IC50). For the same substance, in the series on AR mRNA [2] (Table 27, 1,000 nM oligonucleotide, electroporation, approximately 24 hours, relative to untreated control), the “% inhibition” value is given as 74%. Moreover, the “% inhibition” value with AR mRNA [2] (Table 28, 1,000 nM oligonucleotide, electroporation, approximately 24 hours, relative to untreated control) was found to be 63%.

On to “584002 (k[5mC]*kT*kG*d[5mC]*dT*d[5mC]*dA*d[5mC]*d[5mC]*dA*dT*dG*d[5mC]*k[5mC]*kG*k[5mC]; antisense) [compound 584002]”, for which, in the series on AR mRNA [1] (setting [6]), the “percent inhibition of AR, 46.9 nM” value is recorded as 12%; the “percent inhibition of AR, 187.5 nM” value is 46%; the “percent inhibition of AR, 750.0 nM” value was 70%; the “percent inhibition of AR, 3000.0 nM” value is recorded as 92%. The substance also displayed a half-maximal inhibitory concentration (IC50) in the series with AR mRNA [1] (setting [6]) of 250 nM. Besides, in the series with AR mRNA [2] (setting [7]), the “% inhibition” value stood at 30%.

As to “560099 (kG*kG*kT*dT*dG*dA*dT*dT*dT*dA*dA*dT*dG*kG*kT*kT) [compound 560099]”, the “percent inhibition of AR” value with AR mRNA [1] (31.25 nM, ~16 h, Table 6) was 13%; in the series on AR mRNA [1] (62.5 nM, ~16 h, Table 6) it was 29%; with AR mRNA [1] (125.0 nM, ~16 h, Table 6) it was 58%; in the series with AR mRNA [1] (500.0 nM, ~16 h, Table 6), 89%; in the series on AR mRNA [1] (1000.0 nM, ~16 h, Table 6) it was 94%. In the series with AR mRNA [1] (~16 h, Table 6), this substance came in with an IC50 of 100 nM. The “% inhibition” value in the series with AR mRNA [2] (500 nM ASO, ~24 h, Table 5) is 95%.

In the case of “583662 (antisense kA*kG*kA*dA*dG*dA*d[5mC]*dA*d[5mC]*dA*d[5mC]*dG*dG*kT*kG*kG) [compound 583662]”, in the series on AR mRNA [1] (setting [8]), the “percent inhibition of AR, 46.9 nM” value was 27%; the “percent inhibition of AR, 187.5 nM” value was found to be 59%; the “percent inhibition of AR, 750.0 nM” value was 75%; the “percent inhibition of AR, 3000.0 nM” value came to 75%. The IC50 with AR mRNA [1] (setting [8]) worked out at 150 nM. Further, the “% inhibition” value in the series with AR mRNA [2] (500 nM ASO, ~24 h, Table 17) was 51%.

With “583692 (antisense kG*kT*kG*dA*dT*dG*dA*dT*dG*d[5mC]*dG*dG*dT*kA*kG*kT) [compound 583692]”, in the series with AR mRNA [1] (setting [9]), the “percent inhibition of AR, 46.9 nM” value came to 8%; the “percent inhibition of AR, 187.5 nM” value is recorded as 47%; the “percent inhibition of AR, 750.0 nM” value is 61%; the “percent inhibition of AR, 3000.0 nM” value was found to be 71%. Further, the IC50 with AR mRNA [1] (setting [9]) came to 440 nM. In addition, in the series on AR mRNA [2] (500 nM ASO, ~24 h, Table 18), the “% inhibition” value was 41%.

With “583571 (antisense kT*k[5mC]*kA*dG*dT*d[5mC]*d[5mC]*dT*dA*d[5mC]*d[5mC]*dA*dG*kG*k[5mC]*kA) [compound 583571]”, in the series on AR mRNA [1] (setting [8]), the “percent inhibition of AR, 46.9 nM” value is given as 18%; the “percent inhibition of AR, 187.5 nM” value is recorded as 36%; the “percent inhibition of AR, 750.0 nM” value is on record as 53%; the “percent inhibition of AR, 3000.0 nM” value is reported as 59%. Besides, the IC50 in the series with AR mRNA [1] (setting [8]) turned out to be 800 nM. Also, the “% inhibition” value in the series on AR mRNA [2] (500 nM ASO, ~24 h, Table 16) is on record as 43%.

With “583746 (antisense kT*kG*k[5mC]*dG*d[5mC]*dT*d[5mC]*dG*d[5mC]*dG*dG*d[5mC]*d[5mC]*kT*k[5mC]*kT) [compound 583746]”, in the series with AR mRNA [1] (setting [10]), the “percent inhibition of AR, 46.9 nM” value was 24%; the “percent inhibition of AR, 187.5 nM” value is given as 44%; the “percent inhibition of AR, 750.0 nM” value amounted to 65%; the “percent inhibition of AR, 3000.0 nM” value was 67%. Further, the IC50 with AR mRNA [1] (setting [10]) stood at 350 nM. The “% inhibition” value with AR mRNA [2] (500 nM ASO, ~24 h, Table 18) worked out at 32%.

Take “583871 (kA*kT*kA*d[5mC]*dT*d[5mC]*dA*dG*d[5mC]*dA*dG*dT*dA*kT*k[5mC]*kT; antisense) [compound 583871]”: in the series with AR mRNA [1] (setting [11]), the “percent inhibition of AR, 46.9 nM” value was 28%; the “percent inhibition of AR, 187.5 nM” value was found to be 30%; the “percent inhibition of AR, 750.0 nM” value was found to be 68%; the “percent inhibition of AR, 3000.0 nM” value came out at 87%. In the series on AR mRNA [1] (setting [11]), this substance had an IC50 of 280 nM. Further, the “% inhibition” value in the series with AR mRNA [2] (Table 20, 500 nM oligonucleotide, electroporation, approximately 24 hours, relative to untreated control) was 47%.

Take “584145 (kA*kT*kG*dG*dG*dA*dG*dT*dA*dA*d[5mC]*dT*dT*kT*kT*kG; antisense) [compound 584145]”: in the series on AR mRNA [1] (setting [3]), the “percent inhibition of AR, 46.9 nM” value is given as 6%; the “percent inhibition of AR, 187.5 nM” value worked out at 32%; the “percent inhibition of AR, 750.0 nM” value stood at 63%; the “percent inhibition of AR, 3000.0 nM” value worked out at 88%. The same substance yielded an IC50 with AR mRNA [1] (setting [3]) of 360 nM. The “% inhibition” value in the series on AR mRNA [2] (setting [4]) was 76%.

In the case of “560132 (antisense kG*kT*kT*dG*dA*dT*dT*dT*dA*dA*dT*dG*kG*kT*kT*eG) [compound 560132]”, the “percent inhibition of AR” value with AR mRNA [1] (31.25 nM, ~16 h, Table 14) was found to be 8%; in the series on AR mRNA [1] (62.5 nM, ~16 h, Table 14), 19%; in the series on AR mRNA [1] (125.0 nM, ~16 h, Table 14), 21%; in the series on AR mRNA [1] (500.0 nM, ~16 h, Table 14), 65%; in the series on AR mRNA [1] (1000.0 nM, ~16 h, Table 14) it was 85%. The substance further had a concentration for half-maximal inhibition (IC50) in the series with AR mRNA [1] (~16 h, Table 14) of 252 nM. For the same substance, in the series with AR mRNA [2] (1,000 nM ASO, ~24 h, Table 13), the “% inhibition” value was found to be 58%.

Turning to “549457 (kT*kT*kG*dA*dT*dT*dT*dA*dA*dT*dG*dG*dT*kT*kG*k[5mC]) [compound 549457]”, the “percent inhibition of AR” value is reported as 40% in the series with AR mRNA [1] (31.25 nM, ~16 h, Table 6); 34% in the series on AR mRNA [1] (31.25 nM, ~16 h, Table 8); 70% with AR mRNA [1] (55.6 nM, ~16 h, Table 4); 57% in the series with AR mRNA [1] (62.5 nM, ~16 h, Table 6); 44% with AR mRNA [1] (62.5 nM, ~16 h, Table 8); 78% in the series with AR mRNA [1] (125.0 nM, ~16 h, Table 6). The “percent inhibition of AR” value with AR mRNA [1] (125.0 nM, ~16 h, Table 8) is reported as 75%; in the series on AR mRNA [1] (166.7 nM, ~16 h, Table 4), 95%; with AR mRNA [1] (500.0 nM, ~16 h, Table 4), 99%; in the series with AR mRNA [1] (500.0 nM, ~16 h, Table 6), 96%; in the series on AR mRNA [1] (500.0 nM, ~16 h, Table 8) it was 93%; in the series with AR mRNA [1] (1000.0 nM, ~16 h, Table 6) it was 96%. Further, the “percent inhibition of AR” value with AR mRNA [1] (1000.0 nM, ~16 h, Table 8) is listed as 96%; in the series on AR mRNA [1] (1500.0 nM, ~16 h, Table 4), 99%. Also, the IC50 with AR mRNA [1] (~16 h, Table 4) came to 18 nM; in the series on AR mRNA [1] (~16 h, Table 6), 30 nM; in the series with AR mRNA [1] (~16 h, Table 8), 60 nM. Moreover, the “% inhibition” value in the series with AR mRNA [2] (250 nM ASO, ~24 h, Table 7) came out at 67%; in the series with AR mRNA [2] (500 nM ASO, electroporation, ~24 h, Table 2) it was 98%; in the series with AR mRNA [2] (500 nM ASO, ~24 h, Table 5), 98%.

On to “583996 (k[5mC]*kG*k[5mC]*d[5mC]*dA*dG*dG*dG*dT*dA*d[5mC]*d[5mC]*dA*k[5mC]*kA*k[5mC]; antisense) [compound 583996]”, for which, in the series on AR mRNA [1] (setting [6]), the “percent inhibition of AR, 46.9 nM” value came out at 26%; the “percent inhibition of AR, 187.5 nM” value was 12%; the “percent inhibition of AR, 750.0 nM” value was 50%; the “percent inhibition of AR, 3000.0 nM” value is listed as 70%. The IC50 with AR mRNA [1] (setting [6]) stood at 710 nM. Further, the “% inhibition” value in the series with AR mRNA [2] (setting [7]) is 33%.
